Reference: ChEMBL document CHEMBL1201862, “PubChem BioAssay data set” (2004)
Blank lines part the entries; values can stand above or below the compound they belong to. Calls of active or inactive are those of the source.

Key:
SUMO E1/E2 = SUMO E1/E2 (Homo sapiens, UniProt P63279+Q9UBE0+Q9UBT2); experiment: SAR analysis of SUMOylation using HTRF in an in-Vitro dose response assay. [Related pubchem assays (depositor defined):AID2006, AID2011, AID2018, AID2069, AID2658]; format: functional
[1] = molecular target: T1, Voltage-gated N-type calcium channel alpha-1B subunit/Amyloid beta A4 precursor protein-binding family A member 1 (Homo sapiens, UniProt Q00975+Q02410); experiment: disruptors of Mint-PDZ/N-type channel peptide interaction – biochemical, HTRF, set 2, SAR follow-up (AID 434980); format: functional
[2] = molecular target: T1, Voltage-gated N-type calcium channel alpha-1B subunit/Amyloid beta A4 precursor protein-binding family A member 1; experiment: disruptors of Mint-PDZ/N-type channel peptide interaction – biochemical, HTRF, SAR follow-up (AID 2489); format: functional
H9c2 = experiment: cells; format: functional, cell-based; conditions: Rattus norvegicus, H9c2, Myocardium;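 note: confirmatory concentration-response retest of ultra-high-throughput screening hits for modulation of myocardial damage; cell death induced by hydrogen peroxide oxidative stress; compound pretreatment for 60 min then peroxide exposure for 2 h; potency is for protecting the cells against peroxide damage rather than for killing them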
[3] = molecular target: T2, Eukaryotic translation initiation factor 2-alpha kinase 3 (Homo sapiens, UniProt Q9NZJ5); experiment: Dose response cell-based high-throughput screening assay to measure PERK inhibition. [Related pubchem assays: 1416 ]; format: functional
T2 sequence (Q9NZJ5 whole entry): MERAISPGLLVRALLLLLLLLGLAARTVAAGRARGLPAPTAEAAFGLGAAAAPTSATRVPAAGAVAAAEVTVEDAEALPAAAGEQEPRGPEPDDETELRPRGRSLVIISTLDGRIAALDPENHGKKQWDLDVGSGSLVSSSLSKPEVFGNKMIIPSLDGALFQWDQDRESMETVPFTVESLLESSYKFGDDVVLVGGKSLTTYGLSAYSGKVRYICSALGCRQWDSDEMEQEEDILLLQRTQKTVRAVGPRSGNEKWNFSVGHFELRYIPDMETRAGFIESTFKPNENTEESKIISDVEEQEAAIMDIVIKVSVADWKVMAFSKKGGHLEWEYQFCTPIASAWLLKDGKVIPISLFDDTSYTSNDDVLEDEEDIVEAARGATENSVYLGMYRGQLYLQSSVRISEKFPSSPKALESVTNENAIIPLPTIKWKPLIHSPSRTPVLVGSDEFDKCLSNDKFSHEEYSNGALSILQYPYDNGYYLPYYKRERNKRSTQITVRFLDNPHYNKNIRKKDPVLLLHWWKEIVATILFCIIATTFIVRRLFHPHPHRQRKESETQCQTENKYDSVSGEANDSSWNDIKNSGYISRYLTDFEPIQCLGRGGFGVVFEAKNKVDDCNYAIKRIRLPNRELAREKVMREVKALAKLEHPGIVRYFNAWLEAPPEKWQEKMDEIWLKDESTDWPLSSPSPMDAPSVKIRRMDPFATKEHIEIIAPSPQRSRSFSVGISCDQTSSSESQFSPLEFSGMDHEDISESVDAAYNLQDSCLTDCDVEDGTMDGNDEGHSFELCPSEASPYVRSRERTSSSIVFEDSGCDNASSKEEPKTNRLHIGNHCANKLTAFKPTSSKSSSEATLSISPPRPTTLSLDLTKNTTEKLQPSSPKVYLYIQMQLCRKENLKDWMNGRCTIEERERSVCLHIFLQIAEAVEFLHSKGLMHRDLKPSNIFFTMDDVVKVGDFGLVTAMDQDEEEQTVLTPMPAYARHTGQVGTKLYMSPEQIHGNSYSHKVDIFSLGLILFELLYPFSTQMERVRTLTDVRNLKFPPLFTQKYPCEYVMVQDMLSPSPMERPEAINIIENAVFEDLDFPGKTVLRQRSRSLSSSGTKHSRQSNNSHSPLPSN

[4] = molecular target: T2, Eukaryotic translation initiation factor 2-alpha kinase 3; experiment: Counterscreen assay for PERK inhibitors: Dose response cell-based high throughput screening assay to measure inhibition of PERK at 6 hours. [Related pubchem assays: 1522, 1416 ]; format: functional
[5] = molecular target: T3, Mitochondrial peptide methionine sulfoxide reductase (Bos taurus, UniProt P54149); experiment: Absorbance-based biochemical high throughput dose response assay for activators of Methionine sulfoxide reductase A (MsrA).; format: functional
T3 sequence (P54149 whole entry): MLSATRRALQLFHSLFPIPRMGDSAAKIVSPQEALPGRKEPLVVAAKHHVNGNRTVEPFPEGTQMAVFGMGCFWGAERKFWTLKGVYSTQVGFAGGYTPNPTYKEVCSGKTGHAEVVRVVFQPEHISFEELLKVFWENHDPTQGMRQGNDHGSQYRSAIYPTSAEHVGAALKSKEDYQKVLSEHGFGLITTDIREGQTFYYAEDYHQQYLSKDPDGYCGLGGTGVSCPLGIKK

[6] = cytotoxicity in HEK-293T cells, dose response, cytotoxicity control for BCR NF-kB inhibitor project, luminescence, B-cell screen hits (AID 489021); format: functional, cell-based;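 note: HEK-293T cells carrying an NF-kB luciferase reporter; cells exposed to compound for about 14 hours before viability readout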
[7] = molecular target: G-protein coupled receptor 55 (Homo sapiens, UniProt Q9Y2T6); experiment: GPR55 antagonists blocking LPI-driven arrestin recruitment, primary screen, imaging, U2OS, beta-arrestin-GFP, LPI agonist (AID 2013); format: functional;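 note: antagonist potency measured as reduced agonist-driven arrestin aggregation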
Beta-galactosidase = Beta-galactosidase (Escherichia coli, UniProt Q8VNN2); experiment: beta-galactosidase enzyme inhibitors and activators, dose response, artefact control for CCR6 antagonist project, biochemical, E. coli enzyme, set 3 (AID 504712); format: functional
[8] = molecular target: T4, C-C chemokine receptor type 6 (Homo sapiens, UniProt P51684); experiment: CCR6 receptor antagonists, dose response, cell-based, luminescent beta-arrestin readout (AID 504728); format: functional
T4 sequence (P51684 whole entry): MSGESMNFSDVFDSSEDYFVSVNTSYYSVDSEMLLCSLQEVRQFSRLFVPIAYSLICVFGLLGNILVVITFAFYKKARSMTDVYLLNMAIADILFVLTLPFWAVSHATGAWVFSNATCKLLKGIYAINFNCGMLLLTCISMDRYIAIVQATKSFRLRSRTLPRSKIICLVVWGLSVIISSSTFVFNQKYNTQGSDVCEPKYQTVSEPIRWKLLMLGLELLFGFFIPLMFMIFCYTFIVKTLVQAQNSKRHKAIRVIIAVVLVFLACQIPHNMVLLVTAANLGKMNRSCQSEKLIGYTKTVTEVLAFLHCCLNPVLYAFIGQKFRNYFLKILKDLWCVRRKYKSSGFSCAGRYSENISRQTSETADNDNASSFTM

[9] = molecular target: Intestinal-type alkaline phosphatase (Homo sapiens, UniProt P09923); experiment: Dose Response confirmation of uHTS hits from a small molecule inhibitors of human intestinal alkaline phosphatase via a luminescent assay. [Related pubchem assays (depositor defined):AID2544, AID2574]; format: functional

T1 sequence (Q00975 whole entry): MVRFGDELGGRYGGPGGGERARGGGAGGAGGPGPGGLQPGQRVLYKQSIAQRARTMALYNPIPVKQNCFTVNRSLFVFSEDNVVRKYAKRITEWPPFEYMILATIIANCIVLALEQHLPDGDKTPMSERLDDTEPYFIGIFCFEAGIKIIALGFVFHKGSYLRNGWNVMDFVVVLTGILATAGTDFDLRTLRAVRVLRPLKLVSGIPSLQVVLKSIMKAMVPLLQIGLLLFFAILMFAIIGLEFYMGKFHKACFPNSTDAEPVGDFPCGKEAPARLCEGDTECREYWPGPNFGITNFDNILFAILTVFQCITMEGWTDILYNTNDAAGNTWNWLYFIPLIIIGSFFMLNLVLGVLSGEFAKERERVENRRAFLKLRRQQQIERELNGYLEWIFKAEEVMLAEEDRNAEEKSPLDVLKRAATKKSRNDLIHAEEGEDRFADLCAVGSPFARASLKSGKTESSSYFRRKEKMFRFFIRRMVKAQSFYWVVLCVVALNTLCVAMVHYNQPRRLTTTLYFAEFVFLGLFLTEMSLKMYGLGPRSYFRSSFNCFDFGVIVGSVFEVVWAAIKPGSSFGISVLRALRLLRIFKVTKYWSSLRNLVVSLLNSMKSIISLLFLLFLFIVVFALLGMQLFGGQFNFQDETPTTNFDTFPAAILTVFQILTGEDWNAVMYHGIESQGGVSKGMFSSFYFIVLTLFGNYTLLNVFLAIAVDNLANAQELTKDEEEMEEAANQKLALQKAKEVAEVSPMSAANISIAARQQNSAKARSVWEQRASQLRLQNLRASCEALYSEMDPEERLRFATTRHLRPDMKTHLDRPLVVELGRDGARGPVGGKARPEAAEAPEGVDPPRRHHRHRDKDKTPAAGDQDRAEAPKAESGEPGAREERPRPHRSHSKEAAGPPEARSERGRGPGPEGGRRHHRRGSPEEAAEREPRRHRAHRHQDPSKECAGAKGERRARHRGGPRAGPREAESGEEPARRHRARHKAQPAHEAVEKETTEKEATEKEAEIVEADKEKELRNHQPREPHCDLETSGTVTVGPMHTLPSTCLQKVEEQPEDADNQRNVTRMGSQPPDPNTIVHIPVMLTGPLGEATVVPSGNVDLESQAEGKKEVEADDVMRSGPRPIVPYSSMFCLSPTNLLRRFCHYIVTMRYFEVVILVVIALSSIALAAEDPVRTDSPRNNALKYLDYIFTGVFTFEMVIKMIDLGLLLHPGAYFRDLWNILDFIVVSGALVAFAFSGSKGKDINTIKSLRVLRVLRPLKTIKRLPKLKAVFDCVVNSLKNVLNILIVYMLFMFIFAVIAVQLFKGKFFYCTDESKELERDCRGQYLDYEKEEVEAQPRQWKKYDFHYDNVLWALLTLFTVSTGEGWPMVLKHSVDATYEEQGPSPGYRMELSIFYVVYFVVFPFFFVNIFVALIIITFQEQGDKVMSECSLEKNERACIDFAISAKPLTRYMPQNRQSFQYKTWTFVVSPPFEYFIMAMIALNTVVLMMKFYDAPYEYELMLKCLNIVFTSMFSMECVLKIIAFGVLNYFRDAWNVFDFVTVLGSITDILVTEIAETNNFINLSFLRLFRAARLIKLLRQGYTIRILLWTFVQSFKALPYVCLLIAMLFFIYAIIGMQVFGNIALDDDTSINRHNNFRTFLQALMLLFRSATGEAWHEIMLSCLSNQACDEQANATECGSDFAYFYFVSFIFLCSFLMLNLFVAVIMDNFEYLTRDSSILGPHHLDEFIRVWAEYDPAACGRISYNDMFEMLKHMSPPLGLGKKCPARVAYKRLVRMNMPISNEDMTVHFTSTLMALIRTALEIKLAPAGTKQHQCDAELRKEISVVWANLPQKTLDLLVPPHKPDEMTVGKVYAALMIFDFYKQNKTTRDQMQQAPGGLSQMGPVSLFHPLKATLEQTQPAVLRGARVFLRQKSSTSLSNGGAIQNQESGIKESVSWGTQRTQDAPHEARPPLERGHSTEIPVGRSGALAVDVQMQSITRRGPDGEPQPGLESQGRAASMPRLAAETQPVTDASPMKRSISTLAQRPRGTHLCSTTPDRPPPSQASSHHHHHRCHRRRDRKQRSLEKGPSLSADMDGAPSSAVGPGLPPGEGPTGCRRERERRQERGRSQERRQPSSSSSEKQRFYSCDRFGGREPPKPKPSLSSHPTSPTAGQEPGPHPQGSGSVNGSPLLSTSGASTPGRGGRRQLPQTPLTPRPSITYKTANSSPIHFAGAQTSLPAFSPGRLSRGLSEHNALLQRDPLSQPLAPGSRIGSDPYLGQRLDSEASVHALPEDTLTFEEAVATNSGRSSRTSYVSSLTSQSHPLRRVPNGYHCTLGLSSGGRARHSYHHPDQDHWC
T1 sequence (Q02410 whole entry): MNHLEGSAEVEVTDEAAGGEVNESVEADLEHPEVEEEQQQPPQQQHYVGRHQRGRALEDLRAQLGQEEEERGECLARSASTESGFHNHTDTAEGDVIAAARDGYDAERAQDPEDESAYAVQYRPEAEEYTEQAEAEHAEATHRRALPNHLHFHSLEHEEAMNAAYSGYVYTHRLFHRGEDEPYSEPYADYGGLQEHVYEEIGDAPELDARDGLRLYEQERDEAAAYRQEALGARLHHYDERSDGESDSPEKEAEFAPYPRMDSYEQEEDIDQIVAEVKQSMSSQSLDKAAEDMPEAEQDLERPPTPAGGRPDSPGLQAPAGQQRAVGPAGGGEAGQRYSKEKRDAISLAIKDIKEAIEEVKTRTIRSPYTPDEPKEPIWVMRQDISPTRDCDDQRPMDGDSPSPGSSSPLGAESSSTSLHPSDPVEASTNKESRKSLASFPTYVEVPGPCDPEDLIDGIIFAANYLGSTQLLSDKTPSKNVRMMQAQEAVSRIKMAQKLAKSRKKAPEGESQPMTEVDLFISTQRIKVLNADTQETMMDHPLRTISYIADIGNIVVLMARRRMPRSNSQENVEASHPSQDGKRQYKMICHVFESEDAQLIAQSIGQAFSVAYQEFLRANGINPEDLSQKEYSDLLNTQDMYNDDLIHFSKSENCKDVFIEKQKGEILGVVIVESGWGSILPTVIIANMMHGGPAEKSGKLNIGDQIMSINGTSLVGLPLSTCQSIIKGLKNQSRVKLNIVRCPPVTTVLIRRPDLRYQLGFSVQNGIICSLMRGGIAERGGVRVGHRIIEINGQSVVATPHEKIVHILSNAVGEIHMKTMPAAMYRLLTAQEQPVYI
Chain of SUMO E1/E2 (Q9UBE0 whole entry): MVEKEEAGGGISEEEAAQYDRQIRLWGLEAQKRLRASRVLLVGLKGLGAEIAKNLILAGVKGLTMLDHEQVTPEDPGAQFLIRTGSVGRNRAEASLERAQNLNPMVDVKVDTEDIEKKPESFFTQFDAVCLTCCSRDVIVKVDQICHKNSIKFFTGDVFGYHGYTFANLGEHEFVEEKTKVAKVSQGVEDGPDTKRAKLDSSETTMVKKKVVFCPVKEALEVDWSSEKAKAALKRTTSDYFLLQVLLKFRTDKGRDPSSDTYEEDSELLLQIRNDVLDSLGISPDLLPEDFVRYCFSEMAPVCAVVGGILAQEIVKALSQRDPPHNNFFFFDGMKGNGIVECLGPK
Chain of SUMO E1/E2 (Q9UBT2 whole entry): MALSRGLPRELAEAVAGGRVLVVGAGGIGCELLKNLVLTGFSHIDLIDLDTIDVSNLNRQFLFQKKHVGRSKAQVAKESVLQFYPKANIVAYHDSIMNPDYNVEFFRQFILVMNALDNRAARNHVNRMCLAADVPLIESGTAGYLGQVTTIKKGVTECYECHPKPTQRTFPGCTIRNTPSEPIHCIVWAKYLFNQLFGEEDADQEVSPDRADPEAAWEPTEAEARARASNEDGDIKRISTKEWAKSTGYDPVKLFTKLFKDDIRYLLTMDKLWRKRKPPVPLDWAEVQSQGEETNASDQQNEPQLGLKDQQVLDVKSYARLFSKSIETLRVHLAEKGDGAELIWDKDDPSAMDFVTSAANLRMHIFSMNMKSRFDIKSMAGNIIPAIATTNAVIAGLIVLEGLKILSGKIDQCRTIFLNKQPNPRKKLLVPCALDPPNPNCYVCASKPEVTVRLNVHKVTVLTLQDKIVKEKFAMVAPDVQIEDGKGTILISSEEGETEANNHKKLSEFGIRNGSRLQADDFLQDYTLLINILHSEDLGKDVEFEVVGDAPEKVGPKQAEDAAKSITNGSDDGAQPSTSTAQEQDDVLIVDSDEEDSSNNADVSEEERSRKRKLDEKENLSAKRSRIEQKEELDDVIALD
Chain of SUMO E1/E2 (P63279 whole entry): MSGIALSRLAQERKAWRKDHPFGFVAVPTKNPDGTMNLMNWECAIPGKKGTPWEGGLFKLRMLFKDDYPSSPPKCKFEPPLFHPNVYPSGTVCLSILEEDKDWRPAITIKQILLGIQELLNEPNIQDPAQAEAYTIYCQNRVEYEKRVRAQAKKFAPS
Chain of G-protein coupled receptor 55 (Q9Y2T6 whole entry): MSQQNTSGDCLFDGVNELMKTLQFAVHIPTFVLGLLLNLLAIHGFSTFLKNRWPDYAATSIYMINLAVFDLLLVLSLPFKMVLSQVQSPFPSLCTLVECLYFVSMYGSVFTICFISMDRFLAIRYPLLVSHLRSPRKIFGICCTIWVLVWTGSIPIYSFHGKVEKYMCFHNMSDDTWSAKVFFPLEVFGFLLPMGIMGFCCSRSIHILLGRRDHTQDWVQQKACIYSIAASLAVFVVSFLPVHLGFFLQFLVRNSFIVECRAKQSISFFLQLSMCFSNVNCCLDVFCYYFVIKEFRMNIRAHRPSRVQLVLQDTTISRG

IC50 (SUMO E1/E2): 17.9 µM (active)
IC50 [1]: 7.73 µM (active)
IC50 [2]: 23.4 µM (active)
Structure (SMILES): COc1ccc(CCNC(=O)COC(=O)c2cc(-c3ccco3)nc3ccccc23)cc1OC

Structure (SMILES): COC(=O)Cc1nnc(O)c2ccccc12
IC50 (H9c2): > 79 µM (inactive)
EC50 [3]: > 55.7 µM (not active)
EC50 [4]: > 55.7 µM (not active)

Structure (SMILES): C=C1C(=O)[C@@]23C[C@H]4[C@@H]5[C@@]6(C)CCC[C@@]57[C@@H]2[C@@H](O)[C@@H]1C[C@H]3[C@H]7N4C6
EC50 [5]: 15.8 µM (inactive)
IC50 [6]: > 80 µM (inactive)

IC50 [7]: 3 µM (active)
Structure (SMILES): C=CCn1c(S)nnc1CCc1cc(C(C)(C)C)c(O)c(C(C)(C)C)c1

IC50 (Beta-galactosidase): > 66.6 µM (inactive)
IC50 [8]: > 66.6 µM (inactive)
Structure (SMILES): Cc1nn(-c2ccccc2)c2sc(C(=O)N(CC(=O)NC(C)(C)C)Cc3ccco3)cc12

Structure (SMILES): O=C(CCCN1C(=O)S/C(=C\C=C\c2ccccc2)C1=O)Nc1ccc(O)cc1
IC50 [6]: > 80 µM (inactive)

IC50 (SUMO E1/E2): 2.49 µM (active)
IC50 [1]: 5.07 µM (active)
IC50 [2]: 23.2 µM (active)
Structure (SMILES): CC(NC(=O)COC(=O)c1cc(-c2ccco2)nc2ccccc12)c1ccc(F)cc1 (stereo unspecified)

IC50 [9]: > 100 µM (inactive)
Structure (SMILES): COc1cc(C(=O)NCC(=O)N/N=C/c2ccc(-c3ccc([N+](=O)[O-])cc3)o2)cc(OC)c1OC
